Measurements: publication PMC4126480, “Evaluation of drug interaction potential of Labisia pumila (Kacip Fatimah) and its constituents” (Frontiers in Pharmacology, 2014)
“And” between values parts separate entries of the source, which are not always exact repeats. Identical values can stand only once.

What was measured:
CYP2D6 [1] = molecular target: T1, CYP2D6 (Homo sapiens, UniProt P10635); experiment: Prediction of in vivo HDI from in vitro results, CYP2D6; details: for Likelihood of causing HDI: CYP2D6, IC50 compared with estimated GIT and plasma concentrations; for Plasma concentration: Table 3, CYP2D6 section
T1 construct: purchased BD Gentest (Woburn, MA, USA); host or cells: baculovirus expression system
Description: (§1) All assumptions to predict the HDI potential of KF methanolic extract and its constituents were according to previously published report ([Awortwe et al., 2014]). The % yield was calculated from the amounts extracted from the KF roots ([Ali and Khan, 2011]). The human GIT volume is 250 mL and plasma volume is about 3 L. The commonly used maximum dose of KF extract capsules is 560 mg per day ([Abdul Kadir et al., 2012]) and accordingly we estimated the concentration per dose, GIT, and plasma concentrations of extract and its constituents. We then compared the in vitro IC50 values obtained from recombinant CYPs with estimated GIT and plasma concentrations. If the IC50 values were lower than the GIT or plasma concentration, then the test compound or extract is likely to cause HDI in vivo.

CYP1A2 = molecular target: T2, CYP1A2 (Homo sapiens, UniProt P05177); experiment: Prediction of in vivo HDI from in vitro results, CYP1A2; details: for Likelihood of causing HDI: CYP1A2, IC50 compared with estimated GIT and plasma concentrations; for Plasma concentration: Table 3, CYP1A2 section
T2 construct: purchased BD Gentest (Woburn, MA, USA); host or cells: baculovirus expression system
T2 sequence (P05177 1-516): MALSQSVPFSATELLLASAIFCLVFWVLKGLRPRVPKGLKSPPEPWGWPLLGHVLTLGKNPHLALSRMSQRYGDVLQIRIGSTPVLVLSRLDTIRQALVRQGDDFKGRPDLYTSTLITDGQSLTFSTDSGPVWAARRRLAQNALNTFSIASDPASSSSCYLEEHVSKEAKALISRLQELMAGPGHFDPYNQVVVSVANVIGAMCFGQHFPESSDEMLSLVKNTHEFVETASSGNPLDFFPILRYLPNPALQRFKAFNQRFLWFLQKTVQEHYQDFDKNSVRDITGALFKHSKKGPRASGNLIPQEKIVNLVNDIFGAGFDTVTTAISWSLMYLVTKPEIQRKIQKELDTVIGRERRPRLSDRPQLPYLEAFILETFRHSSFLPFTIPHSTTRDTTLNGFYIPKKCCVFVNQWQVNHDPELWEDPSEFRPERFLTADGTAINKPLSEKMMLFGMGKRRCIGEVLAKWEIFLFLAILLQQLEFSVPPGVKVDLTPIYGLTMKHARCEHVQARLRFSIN
Description: as §1

CYP2C19 [2] = molecular target: T3, CYP2C19 (Homo sapiens, UniProt P33261); experiment: Prediction of in vivo HDI from in vitro results, CYP2C19; set-up: key to Likelihood of causing HDI: If the IC50 values were lower than the GIT or plasma concentration, then the test compound or extract is likely to cause HDI in vivo; details: for Likelihood of causing HDI: CYP2C19, IC50 compared with estimated GIT and plasma concentrations; for Plasma concentration: Table 3, CYP2C19 section
T3 construct: purchased BD Gentest (Woburn, MA, USA); host or cells: baculovirus expression system
Description: as §1

CYP2D6 [3] = molecular target: T1, CYP2D6; experiment: Reversible inhibition of recombinant CYP2D6; type: in vitro ADME
Description: (§2) The assay for reversible inhibition was conducted in a total volume of 200 μL in 96-well microplates. The assay conditions, enzyme and substrate concentrations were similar as reported earlier ([Crespi et al., 1997]; [Manda et al., 2013]). Test samples or positive controls were serially diluted in a solution (100 μL) of cofactors mix, control protein (0.05 mg of protein/mL), and G-6-PDH to achieve six concentrations (100-0.4 μM or μg/mL). Initial readings were taken to record any inherent fluorescence and the plates were incubated at 37°C for 10 min. Reaction was initiated by the addition of enzyme substrate mixture (100 μL) followed by incubation for 15, 30, or 45 min. The reaction was terminated by the addition of 75 μL of ice cold acetonitrile/0.5 M Tris base (80:20). Fluorescence was measured on Spectramax M5 plate reader (Molecular Devices, Sunnyvale, CA, USA) at specified excitation and emission wavelengths for each substrate. IC50 values (co-incubation assay) were obtained from concentration-response curves generated by plotting concentration versus % inhibition.

CYP2C19 [4] = molecular target: T3, CYP2C19; experiment: Reversible inhibition (co-incubation assay) of recombinant CYP2C19; type: in vitro ADME
Description: as §2

CYP3A4 [5] = molecular target: T4, CYP3A4 (Homo sapiens, UniProt P08684); experiment: Time dependent inhibition (pre-incubation assay) of recombinant CYP3A4; type: in vitro ADME
T4 construct: purchased BD Gentest (Woburn, MA, USA); host or cells: baculovirus expression system
Description: The reaction mixture (180–190 μL), consisting of test sample, recombinant enzyme, control protein (0.05 mg of protein/mL), cofactor mix, G-6-PDH, and 50 mM potassium phosphate buffer (pH 7.4) was pre-incubated for 30 min followed by addition of respective fluorescent substrates (10–20 μL) and further incubation for 15 (CYP1A2), 30 (CYP3A4), or 45 (CYP 2C9 and 2C19) min. The reaction was terminated by addition of 75 μL of ice cold acetonitrile/0.5 M Tris base (80:20) and fluorescence was measured as above. IC50 values (pre-incubation assay) were obtained as above. The shift in the concentration-response curve was calculated as the ratio of IC50 (co-incubation)/IC50 (pre-incubation).

CYP3A4 [6] = molecular target: T4, CYP3A4; experiment: Reversible inhibition (co-incubation assay) of recombinant CYP3A4, fluorescent substrate; type: in vitro ADME
Description: as §2, with “The assay conditions, enzyme and substrate concentrations were similar as reported earlier ([Crespi et al., 1997]; [Manda et al., 2013]).” left out

[7] = recombinant CYP2C19, co-incubation

T1 sequence (P10635 whole entry): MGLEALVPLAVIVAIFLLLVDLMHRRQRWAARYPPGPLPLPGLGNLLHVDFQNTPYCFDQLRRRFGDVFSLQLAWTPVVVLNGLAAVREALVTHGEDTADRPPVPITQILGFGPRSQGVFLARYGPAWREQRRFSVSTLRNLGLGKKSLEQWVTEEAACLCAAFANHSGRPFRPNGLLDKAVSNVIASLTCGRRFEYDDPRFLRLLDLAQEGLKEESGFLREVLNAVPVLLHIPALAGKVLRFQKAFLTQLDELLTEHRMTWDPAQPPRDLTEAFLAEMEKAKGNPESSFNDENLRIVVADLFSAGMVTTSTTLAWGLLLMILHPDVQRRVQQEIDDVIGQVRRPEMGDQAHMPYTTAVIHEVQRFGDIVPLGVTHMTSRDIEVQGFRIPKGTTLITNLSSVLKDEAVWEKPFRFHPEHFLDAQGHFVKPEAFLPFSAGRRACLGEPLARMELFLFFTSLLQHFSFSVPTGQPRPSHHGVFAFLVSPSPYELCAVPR
T3 sequence (P33261 whole entry): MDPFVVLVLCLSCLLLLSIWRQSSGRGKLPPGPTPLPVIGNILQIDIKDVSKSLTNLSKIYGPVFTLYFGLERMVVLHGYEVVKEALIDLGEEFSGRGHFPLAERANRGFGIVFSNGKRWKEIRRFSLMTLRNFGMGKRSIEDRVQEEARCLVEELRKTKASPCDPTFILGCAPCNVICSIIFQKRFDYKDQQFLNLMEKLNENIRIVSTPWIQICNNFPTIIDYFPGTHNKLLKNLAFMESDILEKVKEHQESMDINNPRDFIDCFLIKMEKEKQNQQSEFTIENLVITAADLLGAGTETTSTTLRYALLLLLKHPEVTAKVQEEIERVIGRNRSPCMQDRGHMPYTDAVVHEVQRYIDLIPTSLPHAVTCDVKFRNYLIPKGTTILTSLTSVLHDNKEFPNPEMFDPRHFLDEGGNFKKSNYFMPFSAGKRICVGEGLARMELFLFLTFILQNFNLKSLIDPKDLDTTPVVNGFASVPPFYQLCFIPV
T4 sequence (P08684 whole entry): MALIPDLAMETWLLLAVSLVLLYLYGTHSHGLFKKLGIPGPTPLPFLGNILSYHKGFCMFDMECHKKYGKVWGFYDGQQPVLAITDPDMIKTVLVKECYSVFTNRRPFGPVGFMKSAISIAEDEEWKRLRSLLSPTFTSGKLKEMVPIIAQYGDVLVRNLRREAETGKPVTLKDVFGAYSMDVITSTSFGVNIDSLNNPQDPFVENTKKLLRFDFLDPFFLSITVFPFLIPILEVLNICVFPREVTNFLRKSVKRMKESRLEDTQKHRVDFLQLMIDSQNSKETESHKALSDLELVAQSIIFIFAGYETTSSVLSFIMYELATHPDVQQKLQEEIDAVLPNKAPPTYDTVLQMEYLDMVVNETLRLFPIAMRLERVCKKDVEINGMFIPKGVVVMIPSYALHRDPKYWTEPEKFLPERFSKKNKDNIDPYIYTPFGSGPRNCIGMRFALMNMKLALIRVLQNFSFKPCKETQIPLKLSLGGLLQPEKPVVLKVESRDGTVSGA

CCCC/C=C\CCCCCCCCCc1cc(O)cc(O)c1 [5-[10(Z)-pentadecenyl]resorcinol]
Likelihood of causing HDI (CYP2D6 [1]): Remote | Plasma concentration (CYP2D6 [1]): 1460 ng/mL | Likelihood of causing HDI (CYP1A2): Remote | Plasma concentration (CYP1A2): 774 ng/mL | Likelihood of causing HDI (CYP2C19 [2]): likely | Plasma concentration (CYP2C19 [2]): 13220 ng/mL | IC50 (CYP2D6 [3]): 87.9 µM | IC50 (CYP2C19 [4]; [7]): 3.77 µM | IC50 (CYP3A4 [5]): 0.3 ± 0.06 µM | IC50 (CYP3A4 [6]): 4.1 µM and 4.4 µM

CCCC/C=C\CCCCCCCCCc1cc(O)cc2oc3cc(OC)c(O)c(CCCCCCCCC/C=C\CCCC)c3c12 [Fatimahol]
Likelihood of causing HDI (CYP2D6 [1]): unlikely | Plasma concentration (CYP2D6 [1]): 16 ng/mL | Likelihood of causing HDI (CYP1A2): unlikely | Plasma concentration (CYP1A2): 16 ng/mL | Likelihood of causing HDI (CYP2C19 [2]): unlikely | Plasma concentration (CYP2C19 [2]): 16 ng/mL | IC50 (CYP2C19 [4]; [7]): 17 µM | IC50 (CYP3A4 [5]): 4.4 ± 1.3 µM | IC50 (CYP3A4 [6]): 25 µM and 24.7 µM

CCCC/C=C\CCCCCCCCCc1cc(O)cc(OC)c1 [Belamcandol B]
Likelihood of causing HDI (CYP2D6 [1]): unlikely | Plasma concentration (CYP2D6 [1]): 650 ng/mL | Likelihood of causing HDI (CYP1A2): unlikely | Plasma concentration (CYP1A2): 310 ng/mL | Likelihood of causing HDI (CYP2C19 [2]): likely | IC50 (CYP2D6 [3]): 105 µM | IC50 (CYP2C19 [4]; human, recombinant CYP2C19, recombinant CYP2C19, co-incubation): 2.2 µg/mL | IC50 (CYP2C19 [4]; [7]): 2.2 ± 0.6 µM | IC50 (CYP3A4 [5]): 10 ± 1.3 µM | IC50 (CYP3A4 [6]): 18 µM and 45.1 µM

CCCC/C=C\CCCCCCCCCC1=C(c2c(O)cc(O)cc2CCCCCCCCC/C=C\CCCC)C(=O)C=C(OC)C1=O [Demethylbelamcandaquinone B]
Likelihood of causing HDI (CYP2D6 [1]): unlikely | Plasma concentration (CYP2D6 [1]): 1640 ng/mL | Likelihood of causing HDI (CYP1A2): unlikely | Plasma concentration (CYP1A2): 722 ng/mL | Likelihood of causing HDI (CYP2C19 [2]): likely | Plasma concentration (CYP2C19 [2]): 790 ng/mL | IC50 (CYP2D6 [3]): 33.2 µM | IC50 (CYP2C19 [4]; [7]): 8 µM and 7.99 µM | IC50 (CYP3A4 [5]): 26 ± 1.5 µM | IC50 (CYP3A4 [6]): 69 µM and 67.9 µM
